This is an account of results in publication PMC6977461 (Chemical Science, 2019).

Data set [1] addresses T1, mouse GLP-1 receptor (Mus musculus, UniProt O35659).
T1 construct: βTC6 cells which express GLP-1R endogenously; host or cells: βTC6 cells
T1 sequence (O35659 22-463): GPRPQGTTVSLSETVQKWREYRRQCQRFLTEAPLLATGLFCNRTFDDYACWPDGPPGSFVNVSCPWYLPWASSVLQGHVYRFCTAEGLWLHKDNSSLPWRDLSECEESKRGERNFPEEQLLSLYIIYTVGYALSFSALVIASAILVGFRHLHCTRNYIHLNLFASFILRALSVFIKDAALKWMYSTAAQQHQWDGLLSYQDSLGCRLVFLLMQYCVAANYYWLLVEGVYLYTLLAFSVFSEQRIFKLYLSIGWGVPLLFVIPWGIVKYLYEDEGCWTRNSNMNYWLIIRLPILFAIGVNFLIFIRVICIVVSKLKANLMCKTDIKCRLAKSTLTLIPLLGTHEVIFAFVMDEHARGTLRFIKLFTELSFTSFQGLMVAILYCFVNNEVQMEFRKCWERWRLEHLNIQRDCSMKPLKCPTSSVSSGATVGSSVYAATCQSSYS
In words: cAMP production in βTC6 cells expressing GLP-1R endogenously (Method C2). As to conditions: for Potency (%), Table S1: from EC50 in βTC6 cAMP assay, footnote: compare to GLP-1-NH2 (2); for EC50: read-out: EC50 (GLP-1R potency), Table S1. Type of data set: cell-based.

Data set [2] in a line: mouse plasma degradation assay (Methods MP1-MP3). The class given is in vitro ADME. Particulars: mouse plasma diluted 1/1 with PBS; mouse plasma/PBS pH 7.4 (1/1), 5 µM, 37 °C, acetonitrile quench, LC-MS extracted ion chromatogram; MP1 for 2-8, MP2 for 9-11, MP3 for 12-14; mean, n = 3; read-out: Mouse plasma t1/2 (converted). The protocol:
The oligomer was then diluted 1/50 with a solution of plasma/PBS pH 7.4 (1/1) to afford a final concentration of 5μM and incubated at 37°C. […] (t = 0 min was determined using the reaction without plasma). The samples were frozen at -80°C before analysis. […] The supernatant was analyzed by LC-MS. The time course of oligomer degradation was determined by integrating the area of the peak in the extracted ion chromatogram. […] The oligomer was then diluted 1/50 with a solution of plasma/PBS pH 7.4 (1/1) to afford a final concentration of 5μM and incubated at 37°C. […] The oligomer was then diluted 1/50 with a solution of plasma/PBS pH 7.4 (1/1) to afford a final concentration of 5μM and incubated at 37°C. […] Animals. […] A standard chow diet (RM1 (E) 801492, SDS) and tap water were provided ad libitum. All animal protocols done by Physiogenex S.A.S were reviewed and approved by the local (Comité […] national ([…]

Another data set deals with GLP-1R (Homo sapiens, UniProt P43220). The data set can be described thus: cAMP production functional assay in HEK293 cells transfected with GLP-1R (Method C1). Type of data set: cell-based. Also on record: host or cells: HEK-293T. As to conditions: for EC50: HEK-293T cells exogenously expressing human GLP-1R, cAMP by HTRF, 10 min at 37 °C, Method C1, mean, n = 3 (2: n = 6), read-out: EC50 (GLP-1R potency); for Potency (%), percentage of potency compared to GLP-1-NH2: from EC50 in HEK293 GLP-1R cAMP assay.

The target of data set [3] is T1, mouse GLP-1 receptor. The data set can be described thus: radioligand binding assay, [125I]GLP-1(7-36), βTC6 cell membrane homogenates.
Method: In vitro pharmacology: Affinity (IC50)
and 1% BSA. […] Following
incubation, the samples are filtered rapidly under vacuum through glass fiber filters (GF/B, Packard)
presoaked with 0.3% PEI and rinsed several times with an ice-cold buffer containing 50 mM Tris-HCl
and 500 mM NaCl using a 96-sample cell harvester (Unifilter, Packard). The filters are dried then
counted for radioactivity in a scintillation counter (Topcount, Packard) using a scintillation cocktail
(Microscint 0, Packard). The results are expressed as a percent inhibition of the control radioligand
at several concentrations to obtain a competition curve from which its IC50 is calculated using

GLP-1R, sequence (P43220 24-463): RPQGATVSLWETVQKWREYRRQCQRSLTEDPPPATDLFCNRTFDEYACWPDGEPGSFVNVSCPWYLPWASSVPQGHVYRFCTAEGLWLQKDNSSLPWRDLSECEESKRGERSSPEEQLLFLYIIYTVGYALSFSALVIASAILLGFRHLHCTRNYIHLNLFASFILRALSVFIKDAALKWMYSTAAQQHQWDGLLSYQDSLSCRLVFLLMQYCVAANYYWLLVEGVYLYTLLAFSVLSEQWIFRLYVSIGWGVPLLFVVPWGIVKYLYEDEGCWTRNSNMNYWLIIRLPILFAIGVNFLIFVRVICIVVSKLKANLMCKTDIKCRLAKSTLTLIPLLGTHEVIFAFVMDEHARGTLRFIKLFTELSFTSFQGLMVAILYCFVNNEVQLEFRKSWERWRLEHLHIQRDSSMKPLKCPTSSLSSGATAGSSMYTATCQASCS

For the molecule `CC[C@H](C)[C@H](NC(=O)[C@H](Cc1ccccc1)NC(=O)[C@H](CCC(=O)O)NC(=O)[C@H](CCCCN)NC(=O)[C@H](C)NC(=O)[C@H](C)NC(=O)[C@H](CCC(N)=O)NC(=O)CNC(=O)[C@H](CCC(=O)O)NC(=O)[C@H](CC(C)C)NC(=O)[C@H](Cc1ccc(O)cc1)NC(=O)[C@H](CO)NC(=O)[C@H](CO)NC(=O)[C@@H](NC(=O)[C@H](CC(=O)O)NC(=O)[C@H](CO)NC(=O)[C@@H](NC(=O)[C@H](Cc1ccccc1)NC(=O)[C@@H](NC(=O)CNC(=O)[C@H](CCC(=O)O)NC(=O)NC(C)CNC(=O)[C@@H](N)Cc1c[nH]cn1)[C@@H](C)O)[C@@H](C)O)C(C)C)C(=O)N[C@@H](C)C(=O)N[C@@H](Cc1c[nH]c2ccccc12)C(=O)N[C@@H](CC(C)C)C(=O)N[C@H](C(=O)N[C@@H](CCCCN)C(=O)NCC(=O)N[C@@H](CCCNC(=N)N)C(=O)NCC(N)=O)C(C)C` (stereo partly drawn) [compound 6], the “loss in potency relative to 3 (fold)” value on mouse GLP-1 receptor [1] (figures for 6-8 match the βTC6 EC50 values of Table S1) is reported as 24 fold. In addition, at mouse GLP-1 receptor [1], the “Potency (%), Table S1” value is 3% and the EC50 was determined as 3.4 nM. In addition, in data set [2], the half-life at 5 µM was 22.2 min. At GLP-1R, the EC50 is 0.012 nM and the “Potency (%), percentage of potency compared to GLP-1-NH2” value is 25%.
Regarding `CC[C@H](C)[C@H](NC(=O)[C@H](Cc1ccccc1)NC(=O)[C@H](CCC(=O)O)NC(=O)[C@H](CCCCN)NC(=O)[C@H](C)NC(=O)[C@H](C)NC(=O)[C@H](CCC(N)=O)NC(=O)CNC(=O)[C@H](CCC(=O)O)NC(=O)[C@H](CC(C)C)NC(=O)[C@H](Cc1ccc(O)cc1)NC(=O)[C@H](CO)NC(=O)[C@H](CO)NC(=O)[C@@H](NC(=O)[C@H](CC(=O)O)NC(=O)[C@H](CO)NC(=O)[C@@H](NC(=O)[C@H](Cc1ccccc1)NC(=O)[C@@H](NC(=O)CNC(=O)[C@H](CCC(=O)O)NC(=O)NC[C@H](C)NC(=O)[C@@H](N)Cc1c[nH]cn1)[C@@H](C)O)[C@@H](C)O)C(C)C)C(=O)N[C@@H](C)C(=O)N[C@@H](Cc1c[nH]c2ccccc12)C(=O)N[C@@H](CC(C)C)C(=O)N[C@H](C(=O)N[C@@H](CCCCN)C(=O)NCC(=O)N[C@@H](CCCNC(=N)N)C(=O)NCC(N)=O)C(C)C` [compound 3], on mouse GLP-1 receptor [1], the “Potency (%), Table S1” value turned out to be 70% and the EC50 amounted to 0.14 nM. Besides, the half-life at 5 µM in data set [2] was 14.4 min. Besides, at GLP-1R, the EC50 is 0.0027 nM and the “Potency (%), percentage of potency compared to GLP-1-NH2” value was 117%. The IC50 on mouse GLP-1 receptor [3] worked out at 32 nM.
